Laboratory results from US11427549B2, “Pyrimidinyloxy benzo-fused compounds as herbicides” (FMC Corporation, priority 2017, dated 2022).

Columns and labels:
[1] = tested on: ryegrass, Italian (Italian ryegrass, Lolium multiflorum); test: Test A postemergence, ryegrass, Italian; assay type: in vivo; details: Lolium multiflorum, post-emergence, 240 h, 0 to 100 scale (0 no effect, 100 complete control), read-out: Plant response rating, Ryegrass, Italian; for pest or weed control at 31 g/ha: 31 g ai/ha; for pest or weed control at 125 g/ha: 125 g ai/ha
From the text: (§1) Seeds of plant species selected from barnyardgrass (Echinochloa crus-galli), kochia (Kochia scoparia), ragweed (common ragweed, Ambrosia elatior), ryegrass, Italian (Italian ryegrass, Lolium multiflorum), foxtail, giant (giant foxtail, Setaria faberii), foxtail, green (green foxtail, Setaria viridis) and pigweed (Amaranthus retroflexus) were planted into a blend of loam soil and sand and treated preemergence with a directed soil spray using test chemicals formulated in a non-phytotoxic solvent mixture which included a surfactant.
(§2) At the same time, plants selected from these weed species and also wheat (Triticum aestivum), corn (Zea mays), blackgrass (Alopecurus myosuroides), and galium (catchweed bedstraw, Galium aparine) were planted in pots containing the same blend of loam soil and sand and treated with postemergence applications of test chemicals formulated in the same manner. Plants ranged in height from 2 to 10 cm and were in the one- to two-leaf stage for the postemergence treatment. Treated plants and untreated controls were maintained in a greenhouse for approximately 10 days, after which time all treated plants were compared to untreated controls and visually evaluated for injury. […] A dash (-) response means no test result.

[2] = tested on: pigweed (Amaranthus retroflexus); test: Test A preemergence, pigweed; assay type: in vivo; details: Amaranthus retroflexus, pre-emergence, 240 h, 0 to 100 scale (0 no effect, 100 complete control), read-out: Plant response rating, Pigweed; for pest or weed control at 31 g/ha: 31 g ai/ha; for pest or weed control at 125 g/ha: 125 g ai/ha
From the text: as §1, §2

[3] = tested on: ragweed (common ragweed, Ambrosia elatior); test: Test A preemergence, ragweed; assay type: in vivo; details: Ambrosia artemisiifolia, pre-emergence, 240 h, 0 to 100 scale (0 no effect, 100 complete control), read-out: Plant response rating, Ragweed
From the text: as §1, §2

[4] = tested on: ragweed (common ragweed, Ambrosia elatior); test: Test A postemergence, ragweed; assay type: in vivo; details: Ambrosia artemisiifolia, post-emergence, 240 h, 0 to 100 scale (0 no effect, 100 complete control), read-out: Plant response rating, Ragweed; for pest or weed control at 31 g/ha: 31 g ai/ha; for pest or weed control at 125 g/ha: 125 g ai/ha
From the text: as §1, §2

[5] = tested on: wheat (Triticum aestivum); test: Test A postemergence, wheat; assay type: in vivo; details: Triticum aestivum, post-emergence, 240 h, 0 to 100 scale (0 no effect, 100 complete control), read-out: Plant response rating, Wheat; for plant injury at 31 g/ha: 31 g ai/ha; for plant injury at 125 g/ha: 125 g ai/ha
From the text: as §1, §2

[6] = tested on: kochia (Kochia scoparia); test: Test A preemergence, kochia; assay type: in vivo; details: Bassia scoparia, pre-emergence, 240 h, 0 to 100 scale (0 no effect, 100 complete control), read-out: Plant response rating, Kochia; for pest or weed control at 31 g/ha: 31 g ai/ha; for pest or weed control at 125 g/ha: 125 g ai/ha
From the text: as §1, §2

[7] = tested on: ryegrass, Italian (Italian ryegrass, Lolium multiflorum); test: Test A preemergence, ryegrass, Italian; assay type: in vivo; details: Lolium multiflorum, pre-emergence, 240 h, 0 to 100 scale (0 no effect, 100 complete control), read-out: Plant response rating, Ryegrass, Italian; for pest or weed control at 31 g/ha: 31 g ai/ha; for pest or weed control at 125 g/ha: 125 g ai/ha
From the text: as §1, §2

[8] = tested on: pigweed (Amaranthus retroflexus); test: Test A postemergence, pigweed; assay type: in vivo; details: Amaranthus retroflexus, post-emergence, 240 h, 0 to 100 scale (0 no effect, 100 complete control), read-out: Plant response rating, Pigweed; for pest or weed control at 31 g/ha: 31 g ai/ha; for pest or weed control at 125 g/ha: 125 g ai/ha
From the text: as §1, §2

[9] = tested on: barnyardgrass (Echinochloa crus-galli); test: Test A preemergence, barnyardgrass; assay type: in vivo; details: Echinochloa crus-galli, pre-emergence, 240 h, 0 to 100 scale (0 no effect, 100 complete control), read-out: Plant response rating, Barnyardgrass; for pest or weed control at 31 g/ha: 31 g ai/ha; for pest or weed control at 125 g/ha: 125 g ai/ha
From the text: as §1, §2

[10] = tested on: barnyardgrass (Echinochloa crus-galli); test: Test A postemergence, barnyardgrass; assay type: in vivo; details: Echinochloa crus-galli, post-emergence, 240 h, 0 to 100 scale (0 no effect, 100 complete control), read-out: Plant response rating, Barnyardgrass; for pest or weed control at 31 g/ha: 31 g ai/ha; for pest or weed control at 125 g/ha: 125 g ai/ha
From the text: as §1, §2

[11] = tested on: corn (Zea mays); test: Test A postemergence, corn; assay type: in vivo; details: Zea mays, post-emergence, 240 h, 0 to 100 scale (0 no effect, 100 complete control); for Corn plant response rating (crop injury, 0 = no effect, 100 = complete kill) at 31 g/ha: 31 g ai/ha; for Corn plant response rating (crop injury, 0 = no effect, 100 = complete kill) at 125 g/ha: 125 g ai/ha
From the text: as §1, §2

[12] = tested on: blackgrass (Alopecurus myosuroides); test: Test A postemergence, blackgrass; assay type: in vivo; details: Alopecurus myosuroides, post-emergence, 240 h, 0 to 100 scale (0 no effect, 100 complete control), read-out: Plant response rating, Blackgrass; for pest or weed control at 31 g/ha: 31 g ai/ha; for pest or weed control at 125 g/ha: 125 g ai/ha
From the text: as §1, §2

[13] = tested on: galium (catchweed bedstraw, Galium aparine); test: Test A postemergence, galium; assay type: in vivo; details: Galium, post-emergence, 240 h, 0 to 100 scale (0 no effect, 100 complete control), read-out: Plant response rating, Galium; for pest or weed control at 31 g/ha: 31 g ai/ha; for pest or weed control at 125 g/ha: 125 g ai/ha
From the text: as §1, §2

[14] = tested on: kochia (Kochia scoparia); test: Test A postemergence, kochia; assay type: in vivo; details: Bassia scoparia, post-emergence, 240 h, 0 to 100 scale (0 no effect, 100 complete control), read-out: Plant response rating, Kochia; for pest or weed control at 31 g/ha: 31 g ai/ha; for pest or weed control at 125 g/ha: 125 g ai/ha
From the text: as §1, §2

[15] = tested on: ducksalad (Heteranthera limosa); test: Test B flooded paddy test, ducksalad; details: Heteranthera limosa, read-out: Plant response rating, Ducksalad (0 to 100 scale, 0 is no effect, 100 is complete control)
[16] = tested on: barnyardgrass (Echinochloa crus-galli); test: Test B flooded paddy test, barnyardgrass; details: Echinochloa crus-galli, read-out: Plant response rating, Barnyardgrass (0 to 100 scale, 0 is no effect, 100 is complete control)
[17] = tested on: rice (Oryza sativa); test: Test B flooded paddy test, rice; details: Oryza sativa, read-out: Plant response rating, Rice (0 to 100 scale, 0 is no effect, 100 is complete control)

SMILES | pest or weed control at 31 g/ha [1] | pest or weed control at 125 g/ha [1] | pest or weed control at 31 g/ha [2] | pest or weed control at 125 g/ha [2] | pest or weed control at 31 g/ha [4] | pest or weed control at 125 g/ha [4] | plant injury at 31 g/ha [5] | plant injury at 125 g/ha [5] | pest or weed control at 31 g/ha [6] | pest or weed control at 125 g/ha [6] | pest or weed control at 31 g/ha [7] | pest or weed control at 125 g/ha [7] | pest or weed control at 31 g/ha [8] | pest or weed control at 125 g/ha [8] | pest or weed control at 31 g/ha [9] | pest or weed control at 125 g/ha [9] | pest or weed control at 31 g/ha [10] | pest or weed control at 125 g/ha [10] | Corn plant response rating (crop injury, 0 = no effect, 100 = complete kill) at 31 g/ha [11] | Corn plant response rating (crop injury, 0 = no effect, 100 = complete kill) at 125 g/ha [11] | other results
O=C1OCc2cccc(Oc3ncc(Cl)cn3)c2C1CCCC(F)(F)F (stereo not drawn) [Compound 26, 5-[(5-Chloro-2-pyrimidinyl)oxy]-1,4-dihydro-4-(4,4,4-trifluorobutyl)-3H-2-benzopyran-3-one] | 0% | 0% | 20% | 100% | 0% | 10% | 0% | 0% | 0% | 20% | 0% | 10% | 30% | 60% | 0% | 30% | 100% | 100% | 10% | 20% | pest or weed control at 31 g/ha ([3]; 31 g ai/ha): 0%; pest or weed control at 125 g/ha ([3]; 125 g ai/ha): 0%; pest or weed control at 31 g/ha [12]: 0%; pest or weed control at 125 g/ha [12]: 0%; pest or weed control at 31 g/ha [13]: 20%; pest or weed control at 125 g/ha [13]: 50%; pest or weed control at 31 g/ha [14]: 20%; pest or weed control at 125 g/ha [14]: 60%
FC(F)(F)CCCC1COc2cccc(Oc3ncc(Cl)cn3)c21 (stereo not drawn) [Compound 33, 5-Chloro-2-[[2,3-dihydro-3-(4,4,4-trifluorobutyl)-4-benzofuranyl]oxy]pyrimidine] | 0% | 0% | 0% | 10% | 0% | 10% | 0% | 0% | 0% | 0% | 0% | 50% | 20% | 30% | 0% | 50% | 10% | 20% | 0% | 0% | pest or weed control at 250 g/ha [15]: 70%; pest or weed control at 250 g/ha [16]: 0%; pest or weed control at 31 g/ha [12]: 0%; pest or weed control at 125 g/ha [12]: 20%; pest or weed control at 31 g/ha [13]: 50%; pest or weed control at 125 g/ha [13]: 70%; pest or weed control at 31 g/ha [14]: 30%; pest or weed control at 125 g/ha [14]: 40%; plant injury at 250 g/ha [17]: 0%
